Data set [1] concerns the target 20S proteasome trypsin-like activity (Homo sapiens, UniProt Q99436). The experiment in a line: Isolated 20S proteasome, trypsin-like activity (Z-Leu-Ser-Thr-Arg-AMC). It counts as biochemical. Particulars: 0–100 μM, 1 h, 37 °C, pH 8.0. On the procedure: (§1) Proteasome inhibition by the compounds was evaluated with respect to three major activities of the 20S proteasome, namely, chymotrypsin-like, trypsin-like, and caspase-like activities.
(§2) The effect of the compounds on the activity of the isolated 20S proteasome was tested using specific synthetic fluorogenic peptide substrates (Suc-Leu-Leu-Val-Tyr-AMC, Z-Leu-Ser-Thr-Arg-AMC, and Z-Leu-Leu-Glu-AMC for chymotrypsin-like, trypsin-like, and peptidyl glutamyl peptide hydrolase activity, respectively) as reported elsewhere. Briefly, individual mixtures consisting of the compounds (0–100 μM), 1 μg of isolated 20S proteasome, the specific substrate, and 50 mM Tris–HCl pH 8.0 up to a final volume of 100 μL were incubated at 37 °C, and after 1 h, the fluorescence measurements of the hydrolyzed AMC were recorded on a SpectraMax Gemini XPS microplate reader (λexc = 365 nm, λem = 449 nm).

Data set [2] has as its system MCF10A nontumorigenic cells. The experiment in a line: MTT cytotoxicity assay, MCF10A cells. It counts as cell-based, human. Particulars: 72 h exposure, mean ± SD of three experiments. On the procedure:
(§3) The stability of [1]-Cl-[4]-Cl was evaluated in aqueous phosphate-buffered solution (PBS, pH 7.4) using UV–visible spectroscopy. […] The cytotoxicity of the compounds was measured according to a standard MTT assay against human breast cancer (MCF7 and MCF7CR) and ovarian cancer (A2780 and A2780cis) cell lines, and also nontumorigenic MCF10A and human embryonic kidney HEK293T cells (Table ).
(§4) All cell lines were grown in a humidified 5% CO2 environment at 37 °C in dedicated media. Growth media comprised minimum essential medium (MEM) supplemented with 10% FBS, 1% sodium pyruvate, antibiotics, and antimycotic agents for MCF7. MCF10A cells were cultured in a DMEM/F12 Ham’s mixture supplemented with 5% equine serum, 20 ng/mL EGF, 10 μg/mL insulin, […], antibiotics, and antimycotics. MCF7-CR cells were grown in minimum essential medium (MEM), 10% FBS supplemented with 0.1 mg/mL cisplatin, sodium pyruvate, antibiotics, and antimycotics. A2780 and A2780cis cells were cultured in RPMI 1640 GlutaMAX, and HEK293T cells were cultured in DMEM GlutaMAX medium containing 10% heat-inactivated FBS and antibiotics. The effect exerted on cell viability by the compounds was determined using the 3-(4,5-dimethylthiazol-2-yl)-2,5-diphenyltetrazolium bromide (MTT) assay. After individual treatments with 0–100 μM of the compound for 72 h, MTT was added to the culture media at a final concentration of 0.5 mg/mL and incubated for 2 h at 37 °C. Cisplatin was used as a positive control. The medium was replaced with 100 μL of DMSO, and after 10 min, the optical density was recorded at 550 nm on a microplate reader. At least six cultures were used for each data point. Chemicals (Merck-Sigma, Milan, Italy) and plasticware (Corning, Milan, Italy) were cell culture grade.
On the technique in general: Formazan colour is commonly taken as a measure of viable cells.

Data set [3] relates to MCF7-CR cisplatin-resistant breast cancer cells. The experiment in a line: MTT cytotoxicity assay, MCF7CR cells. Particulars: 72 h exposure, mean ± SD of three experiments. Format: cell-based, human. On the procedure: as §3, §4
The target of data set [4] is 20S proteasome chymotrypsin-like activity (Homo sapiens, UniProt P28074). The experiment in a line: Isolated 20S proteasome, chymotrypsin-like activity (Suc-Leu-Leu-Val-Tyr-AMC). It counts as biochemical. Particulars: 0–100 μM, 1 h, 37 °C, pH 8.0. On the procedure: as §1, §2
Data set [5] deals with A2780cis cisplatin-resistant ovarian cancer cells. As to the kind of experiment: MTT cytotoxicity assay, A2780cis cells. Format: cell-based, human. Particulars: 72 h exposure, mean ± SD of three experiments. On the procedure: as §3, §4
Another data set concerns dsDNA oligomer. As to the kind of experiment: SPR biosensor binding to surface-anchored dsDNA oligomer. Particulars: surface-blocked DNA oligomer; for Kd: equilibrium dissociation constant. On the procedure:
The DNA binding ability of curcuminoid ligands and their complexes was evaluated by using a Surface plasmon resonance (SPR) biosensor. The monoexponential nature of binding kinetics for all the compounds is consistent with the presence of a single high-affinity site on DNA (Figure ).
The binding kinetics/affinities of the molecules of interest for DNA were studied according to a previously described biosensor-based method. Briefly, streptavidin was anchored to a carboxylate surface via EDC/NHS chemistry, and 5′-biotinylated dsDNA oligomer (sequence: 3′-[…]-5′) was coupled to surface-blocked streptavidin. Compounds were independently added to the DNA-coated surface at different concentrations, each time following binding kinetics up to equilibrium. PBS buffer was used for both the dissociation and the regeneration steps. Experimental data were fitted to both mono- and biexponential models, and the validity of each model was assessed by a standard F-test procedure. The binding sites on DNA were mapped according to independent competitive binding assays individually using a minor groove binder (GelRed) and a major groove binder (methyl green), respectively. Briefly, GelRed displacement was monitored by comparing the emission spectra of solutions containing different concentrations of curcuminoid-like ligands/complexes (0–100 μM), 20 μM DNA, and GelRed (10 μM) in 10 mM phosphate buffer, pH 7.4. Similarly, methyl green displacement assay was performed by monitoring the absorbance at 630 nm upon addition of candidate competitors (0–100 μM), 100 μM DNA, and methyl green (10 μM) in 50 mM Tris–HCl buffer and 7.5 mM MgSO4, pH 7.5.

Data set [6] relates to A2780 human ovarian carcinoma cells. As to the kind of experiment: MTT cytotoxicity assay, A2780 cells. Format: cell-based. Particulars: for IC50: MTT, 72 h exposure, mean ± SD of three experiments; for SI A2780 HEK293T: selectivity index, values equal IC50 HEK293T / IC50 A2780. On the procedure: as §3, §4
In data set [7] the test system is HEK293T human embryonic kidney cells. The experiment in a line: MTT cytotoxicity assay, HEK293T cells. Particulars: 72 h exposure, mean ± SD of three experiments. Format: cell-based. On the procedure:
as §3, §4

The subject of data set [8] is MCF7 human breast adenocarcinoma cells. The experiment in a line: MTT cytotoxicity assay, MCF7 cells. Format: cell-based. Particulars: for IC50: MTT, 72 h exposure, mean ± SD of three experiments; for SI MCF7 MCF10A: selectivity index, values equal IC50 MCF10A / IC50 MCF7. On the procedure:
as §3, §4

A further data set deals with p62. The experiment in a line: Western blot quantification of p62 in MCF7 cells. It counts as cell-based, human. Particulars: 10 μM, 24 h. On the procedure: Since no significant correlation emerged among cytotoxicity, DNA binding affinity, and proteasome inhibition, the effects of the treatment on the expression levels of p62 were evaluated. p62 is a multifunctional binding protein that is involved in signaling pathways of many cellular activities, including autophagy, whose abnormal expression is associated with malignancies, breast cancer in particular. […] This effect was more evident for the free ligand, in agreement with its higher cytotoxicity to breast cancer cells compared with that of the corresponding ruthenium complex (Figure ).
4 Representative autoradiographs (upper panel) and densitometric analyses (lower panel) of p62 levels in MCF7 cells treated with 10 μM of HZPbdcurc and [3]-Cl for 24 h (*p < 0.01 compared with the control; #p < 0.01 compared with [3]-Cl).
Semiquantitative analysis of p62 was performed by Western blotting upon individual 24 h treatments of MCF-7 cells with 10 μM of HZPbdcurc or [Ru(p-cym)(HZPbdcurc)-Cl]-Cl. Treated cells were lysed, and 15 μg of total protein was electrophoresed on 12% SDS-PAGE, then protein bands were electroblotted onto PVDF membranes (Millipore–Milan, Italy). After incubation with anti-p62 monoclonal antibody (Merck Sigma–Milan, Italy), the bands were immunodetected on a ChemiDoc MP imaging system (Bio-Rad - Milan, Italy). […] Western blot results were analyzed using Fiji software.
(A western blot detects proteins with antibodies after separation by electrophoresis.)

Data set [9] addresses 20S proteasome PGPH (caspase-like) activity (Homo sapiens, UniProt P28072). As to the kind of experiment: Isolated 20S proteasome, peptidyl glutamyl peptide hydrolase (caspase-like) activity (Z-Leu-Leu-Glu-AMC). Particulars: 0–100 μM, 1 h, 37 °C, pH 8.0. It counts as biochemical. On the procedure: as §1, §2
The nature of data set [10]: Solubility in water (qualitative). It counts as physicochemical.

Regarding `Oc1ccc(/C=C/c2cc(/C=C/c3ccc(O)cc3)n(-c3ccccn3)n2)cc1` [HZPbdcurc, 4,4′-((1E,1′E)-(1-(pyridin-2-yl)-1H-pyrazole-3,5-diyl)bis(ethene-2,1-diyl))diphenol], the IC50 in data set [1] is above 100 µM; in data set [2] (Homo sapiens, MCF-10A), 9.7 ± 6.5 µM; in data set [3] (Homo sapiens), 25.9 ± 11 µM; in [4], above 100 µM; in data set [5] (Homo sapiens, A2780cis), 11.1 ± 2.9 µM; in [6] (Homo sapiens, A2780), 8 ± 1.2 µM. Besides, the IC50 in [7] (Homo sapiens, HEK-293T) is 17 ± 0.9 µM; in data set [8] (Homo sapiens, MCF7) it was 35.1 ± 3 µM; in data set [9] it was above 100 µM. In addition, the kass with dsDNA oligomer is given as 1808 ± 740 M^–1s^–1. Further, the kdiss on dsDNA oligomer worked out at 0.031 ± 0.004 s^–1. The molecule also yielded a Kd at dsDNA oligomer of 17 ± 7.3 µM. Moreover, the “SI A2780 HEK293T” value in [6] was 2.13. The “SI MCF7 MCF10A” value in [8] is 0.28. Moreover, the p62 levels result in the data set with p62 is reported as “an increase in the levels of p62 was observed”.
In the case of `Cc1ccc(C(C)C)cc1.Oc1ccc(/C=C/c2cc(/C=C/c3ccc(O)cc3)n(-c3ccccn3)n2)cc1.[Cl-].[Cl][Ru+]` [[3]Cl, [Ru(p-cym)(HZPbdcurc)Cl]Cl], the IC50 in data set [1] was above 100 µM; in [2] it was 15.6 ± 8.9 µM; in data set [3], 31.9 ± 6 µM; in data set [4], above 100 µM; in data set [5], 2.7 ± 0.4 µM; in [6], 2 ± 0.1 µM. Besides, the IC50 in data set [7] is 19 ± 2 µM; in [8] it was 23 ± 6 µM; in [9], above 100 µM. Further, the solubility in water result in data set [10] is “partly soluble in H2O”. The molecule further had a kass in the data set with dsDNA oligomer of 10281 ± 5155 M^–1s^–1. The molecule further came in with a kdiss on dsDNA oligomer of 0.02 ± 0.01 s^–1. Besides, the Kd on dsDNA oligomer worked out at 2.2 ± 1.5 µM. In addition, the “SI A2780 HEK293T” value in [6] is 9.50. Moreover, the “SI MCF7 MCF10A” value in data set [8] is on record as 0.68. Further, the p62 levels result in the data set on p62 is recorded as “an increase in the levels of p62 was observed”.

Broadly, the IC50 is the concentration that inhibits the measured activity by half. Low values mean greater potency, high ones weaker potency. One may read the Kd as a measure of binding affinity in units of concentration. A lower Kd goes with higher affinity.

Source of the values: paper PMC12153055 (Organometallics, 2025).
